Assay results from US20240325747A1, “COMPOSITIONS AND METHODS OF A CONCOMITANT THERAPY OF ALTERNATING ELECTRIC FIELDS AND N-CADHERIN INHIBITOR” (NOVOCURE GMBH, priority 2023, published 2024).

Legend:
A2780 cells [1] = assay: Calcium switch assay, immunoblot of AKT phosphorylation (Ser473) after TTFields; format: cell-based; conditions: A2780, TTFields 200 kHz 72 h then 4 mM EGTA; compared with TTFields-treated cells under normal calcium levels
Description: (§1) FIGS. 10A-10E show N-cadherin engagement functions upstream of AKT activation during long-term TTFields application. (FIG. 10A) H1299 cells were either left untreated or treated with TTFields (150 kHz) for 72 h. Left panel: Confocal fluorescence microscopy images of N-cadherin in control and TTFields-treated cells are shown. Blue, DAPI-stained DNA; Red, F-actin; Green, N-cadherin; Scale bars, 20 μm. Right panel: Quantification of N-cadherin expression, shown as mean±SEM. *p<0.05; unpaired t-test: N≥2. (FIGS. 10B, 10C) A2780 and H1299 cells were treated with TTFields (200 kHz and 150 kHz, respectively) for 72 h and then: left untreated (No EGTA), treated with 4 mM EGTA (EGTA), or treated with 4 mM EGTA subsequently replaced with serum-free calcium-containing medium (EGTA/Ca^+2). (FIG. 10B) Representative phase-contrast images. Scale bars, 100 μm. (FIG. 10C) Upper panels: Samples were immunoblotted for AKT, pAKT (Ser473), and GAPDH. […]
(§2) NSCLC cells (FIGS. 4—H1299 cells) or ovarian cancer cells (FIGS. 5—A2780 cells) treated with TTFields for 72 hours were incubated with […] EGTA to disrupt cell-cell contacts. […] Relative protein densities of Akt on the Ser-473 ratio were determined. […]

H1299 cells [2] = assay: as above; format: cell-based; conditions: H1299, TTFields 150 kHz 72 h then 4 mM EGTA; compared with TTFields-treated cells under normal calcium levels
Description: as §1, §2

A2780 cells [3] = assay: Calcium switch assay, cell morphology (phase-contrast); format: cell-based; conditions: A2780, control and TTFields (72 h) conditions, 4 mM EGTA
Description: as §1, with “GAPDH. Lower panels: Densitometric analysis (arbitrary units normalized to the expression of the housekeeping protein GAPDH), is shown as mean±SEM. *p<0.05, and *** p<0.001; one-way ANOVA followed by Tukey's post hoc test: N≥2.” for “GAPDH.”

H1299 cells [4] = assay: as above; format: cell-based; conditions: H1299, control and TTFields (72 h) conditions, 4 mM EGTA
Description: as §1, with “GAPDH. Lower panels: Densitometric analysis (arbitrary units normalized to the expression of the housekeeping protein GAPDH), is shown as mean±SEM. *p<0.05, and *** p<0.001; one-way ANOVA followed by Tukey's post hoc test: N≥2.” for “GAPDH.”

tumor microenvironment = conditions: systemic ADH-1; cited from earlier work
angiogenesis = conditions: cited from earlier work

Row | Molecule | AKT phosphorylation (Ser473) (A2780 cells [1]) | AKT phosphorylation (Ser473) (H1299 cells [2]) | Cell morphology (A2780 cells [3]) | Cell morphology (H1299 cells [4]) | Tumor growth (tumor microenvironment) | Angiogenesis (angiogenesis)
1 | O=C(O)CN(CCOCCOCCN(CC(=O)O)CC(=O)O)CC(=O)O [EGTA, ethylene glycol-bis (β-aminoethyl ether)-N,N,N′,N′-tetraacetic acid] | reduced phosphorylation of AKT | reduced phosphorylation of AKT | rounded morphology | rounded morphology |  | 
2 | N-Ac-CHAVC-NH2 (also: cyclic, type not given here) [ADH-1, cyclic peptide N-cadherin antagonist (CHAVC] |  |  |  |  | modulate tumor growth through activation of the AKT pathway | inhibit angiogenesis
